Experimental data published in US5840895A, “Triazole intermediates for tricyclic benzazepine and benzothiazepine derivatives” (Meiji Seika Kabushiki Kaisha, priority 1993, dated 1998).
Like-named read-outs stand apart in the source and are kept apart here.

Experiments:
[1] = cited from earlier work
[2] = test system: allergic edema reaction at paw; experiment: Test for suppressing immediate and delayed allergic reaction (allergic edema reaction at paw, DNP-OA); assay type: in vivo, rat (male Wister); details: Rattus norvegicus; for inhibition in vivo at 10 mg/kg / inhibition in vivo at 30 mg/kg: oral; for inhibition in vivo at 30 mg/kg: dose: 30 mg/kg of body weight
Procedure: Test for suppressing immediate and delayed allergic reaction
1×10^10 of inviable pertussis and 1 mg of dinitrophenylated ovalbumin (DNP-OA) were administered subcutaneously to the three paws except the right hind paw of male Wister rats having a body weight of 200 g. After 10 days, 5 μg of DNP-OA was further administered subcutaneously to the right hind paw of the animals to induce the allergic edema reaction at paw. The allergy suppressing effect of the test compounds was examined with reference to the edema volumes after 30 minutes and 8 hours of the induction of the allergic reaction as the immediate and delayed allergic reactions, respectively.
[…] On the other hand, only a solution of 0.25% Tween 80 was orally administered to rats as the untreated control, and 100 mg/kg of sodium chromoglycate subcutaneously or orally to rats as the positive control.
The rate of suppressing the allergic edema reaction at paw was calculated from the following equation.
Suppression rate of the allergic edema reaction at paw
A is an average edema volume in the control, and
B is an average edema volume in the drug treated group.

[3] = test system: histamine releasing reaction; experiment: Test of suppressing histamine releasing reaction (abdominal cavity cells of rats sensitised with anti-DNP-As serum, stimulated with DNP-As); assay type: cell-based, rat (male Wister); details: Rattus norvegicus; cells 10^5 cell/ml stimulated with 1 μg/ml DNP-As; test compounds 10^-5 -10^-10 M; read-out: IC50 (suppression of histamine releasing reaction)
Procedure: Test of suppressing histamine releasing reaction
Rat anti-dinitrophenylated ascaris protein (referred to hereinafter as DNP-As) serum was prepared according to the method described by Tada, T. and Okumura, K., J. Immun., 106 (4), 1971. Briefly, 1×10^10 of inviable pertussis and 1 mg of DNP-As were administered subcutaneously to the paw of female Brown Norway rats having a body weight of 200 g. After five days, 0.5 mg of DNP-As was further administered intramuscularly to the rear of the animals. Blood samples were taken after three days of the administration to prepare anti-serum.
A 1 ml portion of the serum diluted four times with physiological saline was administered intraperitoneally to male Wister rats. After two days, abdominal cavity was rinsed with phosphate buffer to recover the cells within the abdominal cavity. After the cell concentration was adjusted to 10^5 cell/ml, the cells were stimulated with 1 μg/ml of DNP-As. The amount of histamine released into the supernatant was measured according to the method described by Shore, P. A., Burkhalter, A. H. and Chon, V. H. Jr., J. Pharm. Exp. Ther., 127, 182-186 (1959).
A dose for suppressing 50% of the histamine releasing reaction, i.e., IC50 value, was calculated from the amounts of histamine released in the group treated with the test compounds in the molar concentrations (M) of 10^-5 -10^-10 and in the control group. The IC50 value as the suppressing effect of the drugs is shown in Table 6 with the IC50 value of sodium chromoglycic acid selected as the control compound.

[4] = 0.5 h, edema volume 30 minutes after induction, read-out: Suppressing Rate, Immediate Reaction
[5] = edema volume 8 hours after induction, read-out: Suppressing Rate, Slow reaction
[6] = 0.5 h, 30 minutes after induction, read-out: Suppressing Rate, Immediate Reaction
[7] = 8 hours after induction, read-out: Suppressing Rate, Slow reaction

In the case of `O=C(O)c1cc(=O)c2c(OCC(O)COc3cccc4oc(C(=O)O)cc(=O)c34)cccc2o1` [DSCG, sodium chromoglycate, reference compound], the “effectiveness on oral administration” value [1] is listed as “no effectiveness”, the inhibition in vivo at 100 mg/kg ([2]; po, 0.5 h, orally, 30 minutes after induction (positive control), read-out: Suppressing Rate, Immediate Reaction) is listed as 16% and the inhibition in vivo at 100 mg/kg ([2]; po, orally, 8 hours after induction (positive control), read-out: Suppressing Rate, Slow reaction) is listed as 20%. The inhibition in vivo at 100 mg/kg ([2]; sc, 0.5 h, subcutaneously, 30 minutes after induction (positive control), read-out: Suppressing Rate, Immediate Reaction) was 75% and the inhibition in vivo at 100 mg/kg ([2]; sc, subcutaneously, 8 hours after induction (positive control), read-out: Suppressing Rate, Slow reaction) was 53%.
For `CCc1ccc2c(=O)c3[nH]nnc3c(=O)[nH]c2c1` [Example 12, 7-ethyl-4(5H),10-dioxo-1H-1,2,3-triazolo[4,5-c][l]benzazepine], the IC50 [3] was 6.2 nM, the inhibition in vivo at 10 mg/kg [2, 4] was 59% and the inhibition in vivo at 10 mg/kg [2, 5] was 53%.
For `COC(=O)/C=C/c1ccc2c(=O)c3[nH]nnc3c(=O)[nH]c2c1` [Example 16, 7-(2-methoxycarbonyl-(E)-ethenyl)-4(5H),10-dioxo-1H-1,2,3-triazolo[4,5-c][l]benzazepine], the IC50 [3] was 2.6 nM, the inhibition in vivo at 10 mg/kg [2, 4] was 79% and the inhibition in vivo at 10 mg/kg [2, 5] was 80%.
For `Cc1ccc2c(=O)c3[nH]nnc3c(=O)[nH]c2c1` [Example 4, 7-methyl-4(5H),10-dioxo-1H-1,2,3-triazolo[4,5-c][l]benzazepine], the IC50 [3] was 2.3 nM, the inhibition in vivo at 30 mg/kg [2, 6] was 70.5% and the inhibition in vivo at 30 mg/kg [2, 7] was 57.7%.
Compound `Cc1cccc2c(=O)c3[nH]nnc3c(=O)[nH]c12` [Example 3, 6-methyl-4(5H),10-dioxo-1H-1,2,3-triazolo[4,5-c][l]benzazepine] has an IC50 [3] of 37 nM, an inhibition in vivo at 30 mg/kg [2, 6] of 46.6% and an inhibition in vivo at 30 mg/kg [2, 7] of 24.2%.
